Measured values taken from PMC7452891, “Cytokinin fluoroprobe reveals multiple sites of cytokinin perception at plasma membrane and endoplasmic reticulum” (Nature Communications, 2020).

Legend:
[1] = target: T1, AtCKX2 (CYTOKININ OXIDASE/DEHYDROGENASE) (Arabidopsis thaliana, UniProt Q9FUJ3); test: in vitro enzymatic reaction with AtCKX2 (kcat, Vmax/Km); type: biochemical
T1 construct: gene CKX2
T1 sequence (Q9FUJ3 23-501): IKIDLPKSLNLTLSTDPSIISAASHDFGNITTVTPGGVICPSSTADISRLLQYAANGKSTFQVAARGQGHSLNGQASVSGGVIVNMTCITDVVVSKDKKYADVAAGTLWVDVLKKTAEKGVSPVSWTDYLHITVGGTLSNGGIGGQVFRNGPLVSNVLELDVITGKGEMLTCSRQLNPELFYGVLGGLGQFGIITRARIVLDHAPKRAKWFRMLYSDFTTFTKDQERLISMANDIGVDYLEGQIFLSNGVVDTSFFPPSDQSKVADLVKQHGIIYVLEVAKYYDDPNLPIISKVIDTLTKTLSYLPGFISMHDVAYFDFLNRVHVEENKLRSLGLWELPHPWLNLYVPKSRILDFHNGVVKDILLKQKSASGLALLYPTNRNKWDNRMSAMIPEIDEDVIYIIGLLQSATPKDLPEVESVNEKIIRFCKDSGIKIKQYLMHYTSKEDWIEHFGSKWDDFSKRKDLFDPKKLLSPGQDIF

[2] = target: T2, CRE1/AHK4 (ARABIDOPSIS HISTIDINE KINASE 4) (Arabidopsis thaliana, UniProt Q9C5U0); test: competitive radioligand binding assay ([[…]-3H]tZ, [[…]-3H]iP) with E. coli cells expressing the receptor; type: cell-based
T2 construct: expressed in E. coli KMI001 (pIN-III-AHK4)
T2 sequence (Q9C5U0 whole entry): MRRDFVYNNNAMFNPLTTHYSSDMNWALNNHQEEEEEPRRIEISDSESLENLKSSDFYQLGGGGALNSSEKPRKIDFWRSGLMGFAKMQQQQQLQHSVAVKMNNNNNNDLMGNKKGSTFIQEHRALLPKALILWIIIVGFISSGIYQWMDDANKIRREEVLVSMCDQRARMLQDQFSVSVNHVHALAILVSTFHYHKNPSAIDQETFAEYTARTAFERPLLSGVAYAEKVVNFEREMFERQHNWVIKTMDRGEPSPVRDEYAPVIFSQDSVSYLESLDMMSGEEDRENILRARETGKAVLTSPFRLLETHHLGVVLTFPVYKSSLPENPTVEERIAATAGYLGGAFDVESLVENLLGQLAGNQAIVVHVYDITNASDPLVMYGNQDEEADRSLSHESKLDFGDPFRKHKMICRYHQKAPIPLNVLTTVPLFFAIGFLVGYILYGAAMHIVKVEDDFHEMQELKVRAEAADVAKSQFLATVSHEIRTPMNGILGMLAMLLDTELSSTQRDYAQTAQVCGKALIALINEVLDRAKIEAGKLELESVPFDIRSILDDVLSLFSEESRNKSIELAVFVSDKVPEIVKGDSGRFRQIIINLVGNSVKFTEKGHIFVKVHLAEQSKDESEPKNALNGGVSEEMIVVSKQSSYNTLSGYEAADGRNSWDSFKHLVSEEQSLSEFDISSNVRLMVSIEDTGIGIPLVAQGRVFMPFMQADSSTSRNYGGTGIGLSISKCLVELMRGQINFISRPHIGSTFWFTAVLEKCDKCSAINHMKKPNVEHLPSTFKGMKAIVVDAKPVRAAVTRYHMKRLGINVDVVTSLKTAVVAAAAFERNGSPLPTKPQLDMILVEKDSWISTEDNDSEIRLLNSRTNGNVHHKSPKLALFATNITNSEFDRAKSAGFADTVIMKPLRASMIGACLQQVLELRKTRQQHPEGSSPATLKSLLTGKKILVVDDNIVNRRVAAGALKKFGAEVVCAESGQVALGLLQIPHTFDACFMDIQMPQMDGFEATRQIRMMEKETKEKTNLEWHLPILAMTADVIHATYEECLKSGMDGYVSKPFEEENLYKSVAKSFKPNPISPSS

AHK3 [3] = target: T3, AHK3 (Arabidopsis thaliana, UniProt Q9C5U1); test: as above; type: cell-based
T3 construct: expressed in E. coli KMI001 (pSTV28-AHK3)
T3 sequence (Q9C5U1 1-1036): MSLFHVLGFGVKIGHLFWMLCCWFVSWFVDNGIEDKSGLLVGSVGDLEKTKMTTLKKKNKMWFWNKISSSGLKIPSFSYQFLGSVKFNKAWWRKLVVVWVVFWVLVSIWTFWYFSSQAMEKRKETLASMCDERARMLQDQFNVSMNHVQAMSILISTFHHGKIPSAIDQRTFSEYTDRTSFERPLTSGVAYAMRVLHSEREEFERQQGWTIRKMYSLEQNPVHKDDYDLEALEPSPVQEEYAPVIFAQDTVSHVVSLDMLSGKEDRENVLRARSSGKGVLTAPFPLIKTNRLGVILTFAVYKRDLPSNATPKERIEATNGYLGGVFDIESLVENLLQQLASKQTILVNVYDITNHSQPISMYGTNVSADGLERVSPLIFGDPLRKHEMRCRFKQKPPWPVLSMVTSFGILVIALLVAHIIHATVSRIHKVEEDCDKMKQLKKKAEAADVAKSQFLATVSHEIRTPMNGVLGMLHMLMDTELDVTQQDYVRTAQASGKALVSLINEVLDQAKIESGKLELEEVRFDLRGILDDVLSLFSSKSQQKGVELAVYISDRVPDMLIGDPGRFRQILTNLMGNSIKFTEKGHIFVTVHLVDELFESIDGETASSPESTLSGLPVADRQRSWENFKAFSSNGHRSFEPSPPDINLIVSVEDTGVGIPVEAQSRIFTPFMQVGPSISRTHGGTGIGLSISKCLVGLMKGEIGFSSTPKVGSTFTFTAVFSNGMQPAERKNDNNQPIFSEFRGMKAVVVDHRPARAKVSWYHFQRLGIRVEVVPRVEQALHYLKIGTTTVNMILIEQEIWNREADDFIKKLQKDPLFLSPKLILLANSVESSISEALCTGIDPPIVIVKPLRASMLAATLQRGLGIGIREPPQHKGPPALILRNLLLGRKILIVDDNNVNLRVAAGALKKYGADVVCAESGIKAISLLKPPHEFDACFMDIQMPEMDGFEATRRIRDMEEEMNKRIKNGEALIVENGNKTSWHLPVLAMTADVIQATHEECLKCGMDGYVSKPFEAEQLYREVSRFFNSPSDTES

[4] = target: T2, CRE1/AHK4 (ARABIDOPSIS HISTIDINE KINASE 4); test: radioligand ([[…]-3H]tZ, […]) in competitive binding assay with E. coli cells
AHK3 [5] = target: T3, AHK3; test: as above

SMILES	in vitro enzymatic reaction with AtCKX2 (kcat, Vmax/Km) [1]	Ki [2]	Ki (AHK3 [3])	radioligand ([2-3H]tZ, 3 nM) in competitive binding assay with E. coli cells [4]	radioligand ([2-3H]tZ, 3 nM) in competitive binding assay with E. coli cells (AHK3 [5])
CC(C)=CCNc1ncnc2c1ncn2CCNc1ccc([N+](=O)[O-])c2nonc12 [iP-NBD]	AtCKX2 converted iP-NBD to the product with approx. six times lower turnover rate kcat compared to the parental iP	~1400 nM	~37 µM	–	–
C/C(=C\CNc1ncnc2[nH]cnc12)CO [tZ]	–	–	–	iP-NBD competes for receptor binding with radiolabelled natural cytokinins iP and tZ	iP-NBD competes for receptor binding with radiolabelled natural cytokinins iP and tZ
